In patent US9326506B2, “Preparation method, agricultural composition and applications of natural brassinolide analogs” (CHENGDU NEWSUN CROPSCIENCE CO., LTD, priority 2012, dated 2016):

System: rice
Test: Low temperature assay on rice seedlings
Assay type: in vivo
Protocol: According to a low temperature assay, we measured parameters including plant height, number of leaf, area of leaf, number of tiller, weight of root at low temperature to completely determine effects of the natural brassinolide analogues on the resistance to low temperature of a plant.
The natural brassinolide analogues, BR1, BR2, BR3, BR4, BR5 and BR6, used herein, were those prepared by the method of Example 1. Respectively the analogues were dissolved into 95% (V/V) ethanol solution, and then diluted with pure water to 1 mg/L, 0.1 mg/L, 0.01 mg/L, 0.001 mg/L and 0.0001 mg/L. In addition, pure water was used as a control.
After rice seeds were disinfected by using 5% sodium hypochlorite solution treatment, they were rinsed with distilled water until their pH>7, placed into a petri dish in a dark incubator, and cultured by using water at 30° C.±2° C. for 9 days. Then respectively the nine-day-old etiolated seedlings of rice were immersed in the above solutions containing different concentrations of the natural brassinolide analogues or pure water, and cultured at the temperature of 1° C., 2° C., 3° C., 4° C. and 5° C. for 24 hr. The parameters including plant height, area of leaf and weight of root after 3, 6, 9 and 12 days and number of leaf and number of tiller after 12 days were measured.

`CC(C)C[C@@H](O)[C@H](O)[C@@H](C)[C@H]1CCC2C3CC(=O)C4C[C@H](O)[C@H](O)C[C@]4(C)C3CC[C@@]21C` (stereo partly shown) [BR5] showed an Area of leaf (0.001 mg/l, 2 °C, 6 days) of 11.6 cm^2, a Height (0.001 mg/l, 2 °C, 6 days) of 7.1 cm and a Weight of root (0.001 mg/l, 2 °C, 6 days) of 3.0 g. The Area of leaf (0.001 mg/l, 2 °C, 9 days) was 12.2 cm^2, the Height (0.001 mg/l, 2 °C, 9 days) was 7.3 cm and the Weight of root (0.001 mg/l, 2 °C, 9 days) was 3.2 g. For the same molecule, the Area of leaf (0.001 mg/l, 2 °C, 12 days) was 13.1 cm^2, the Height (0.001 mg/l, 2 °C, 12 days) was 7.3 cm and the Number of leaf (0.001 mg/l, 2 °C, 12 days) was 3. It also gave a Number of tiller (0.001 mg/l, 2 °C, 12 days) of 3, a Weight of root (0.001 mg/l, 2 °C, 12 days) of 3.9 g and an Area of leaf (0.001 mg/l, 3 °C, 3 days) of 10 cm^2. It also gave a Height (0.001 mg/l, 3 °C, 3 days) of 7 cm, a Weight of root (0.001 mg/l, 3 °C, 3 days) of 2.5 g and an Area of leaf (0.001 mg/l, 3 °C, 6 days) of 12 cm^2. For the same molecule, the Height (0.001 mg/l, 3 °C, 6 days) was 7 cm, the Weight of root (0.001 mg/l, 3 °C, 6 days) was 2.6 g and the Area of leaf (0.001 mg/l, 3 °C, 9 days) was 12.4 cm^2. For the same molecule, the Height (0.001 mg/l, 3 °C, 9 days) was 7.3 cm, the Weight of root (0.001 mg/l, 3 °C, 9 days) was 2.9 g and the Area of leaf (0.001 mg/l, 3 °C, 12 days) was 13 cm^2. For the same molecule, the Height (0.001 mg/l, 3 °C, 12 days) was 7.4 cm, the Number of leaf (0.001 mg/l, 3 °C, 12 days) was 3 and the Number of tiller (0.001 mg/l, 3 °C, 12 days) was 2. For the same molecule, the Weight of root (0.001 mg/l, 3 °C, 12 days) was 2.9 g, the Area of leaf (0.001 mg/l, 4 °C, 3 days) was 10 cm^2 and the Height (0.001 mg/l, 4 °C, 3 days) was 7.1 cm. The Weight of root (0.001 mg/l, 4 °C, 3 days) was 2.5 g, the Area of leaf (0.001 mg/l, 4 °C, 6 days) was 12.1 cm^2 and the Height (0.001 mg/l, 4 °C, 6 days) was 7.3 cm. For the same molecule, the Weight of root (0.001 mg/l, 4 °C, 6 days) was 2.6 g, the Area of leaf (0.001 mg/l, 4 °C, 9 days) was 13 cm^2 and the Height (0.001 mg/l, 4 °C, 9 days) was 7.5 cm. The Weight of root (0.001 mg/l, 4 °C, 9 days) was 2.9 g, the Area of leaf (0.001 mg/l, 4 °C, 12 days) was 13.5 cm^2 and the Height (0.001 mg/l, 4 °C, 12 days) was 7.5 cm. It also gave a Number of leaf (0.001 mg/l, 4 °C, 12 days) of 3, a Number of tiller (0.001 mg/l, 4 °C, 12 days) of 2 and a Weight of root (0.001 mg/l, 4 °C, 12 days) of 2.9 g. For the same molecule, the Area of leaf (0.001 mg/l, 5 °C, 3 days) was 10.2 cm^2, the Height (0.001 mg/l, 5 °C, 3 days) was 7.2 cm and the Weight of root (0.001 mg/l, 5 °C, 3 days) was 2.8 g. It also gave an Area of leaf (0.001 mg/l, 5 °C, 6 days) of 14 cm^2, a Height (0.001 mg/l, 5 °C, 6 days) of 7.5 cm and a Weight of root (0.001 mg/l, 5 °C, 6 days) of 2.9 g. For the same molecule, the Area of leaf (0.001 mg/l, 5 °C, 9 days) was 15.4 cm^2, the Height (0.001 mg/l, 5 °C, 9 days) was 7.6 cm and the Weight of root (0.001 mg/l, 5 °C, 9 days) was 3.0 g. For the same molecule, the Area of leaf (0.001 mg/l, 5 °C, 12 days) was 16 cm^2, the Height (0.001 mg/l, 5 °C, 12 days) was 8 cm and the Number of leaf (0.001 mg/l, 5 °C, 12 days) was 3. It also gave a Number of tiller (0.001 mg/l, 5 °C, 12 days) of 3, a Weight of root (0.001 mg/l, 5 °C, 12 days) of 3.4 g and an Area of leaf (0.01 mg/l, 1 °C, 3 days) of 10.1 cm^2. For the same molecule, the Height (0.01 mg/l, 1 °C, 3 days) was 7.0 cm, the Weight of root (0.01 mg/l, 1 °C, 3 days) was 2.8 g and the Area of leaf (0.01 mg/l, 1 °C, 6 days) was 11.6 cm^2. For the same molecule, the Height (0.01 mg/l, 1 °C, 6 days) was 7.2 cm, the Weight of root (0.01 mg/l, 1 °C, 6 days) was 3.0 g and the Area of leaf (0.01 mg/l, 1 °C, 9 days) was 12 cm^2. The Height (0.01 mg/l, 1 °C, 9 days) was 7.3 cm, the Weight of root (0.01 mg/l, 1 °C, 9 days) was 3.1 g and the Area of leaf (0.01 mg/l, 1 °C, 12 days) was 13.6 cm^2. For the same molecule, the Height (0.01 mg/l, 1 °C, 12 days) was 7.5 cm, the Number of leaf (0.01 mg/l, 1 °C, 12 days) was 3 and the Number of tiller (0.01 mg/l, 1 °C, 12 days) was 3. The Weight of root (0.01 mg/l, 1 °C, 12 days) was 3.9 g, the Area of leaf (0.01 mg/l, 2 °C, 3 days) was 10.1 cm^2 and the Height (0.01 mg/l, 2 °C, 3 days) was 7.1 cm. The Weight of root (0.01 mg/l, 2 °C, 3 days) was 2.8 g, the Area of leaf (0.01 mg/l, 2 °C, 6 days) was 11.1 cm^2 and the Height (0.01 mg/l, 2 °C, 6 days) was 7.2 cm. The Weight of root (0.01 mg/l, 2 °C, 6 days) was 3 g, the Area of leaf (0.01 mg/l, 2 °C, 9 days) was 12.1 cm^2 and the Height (0.01 mg/l, 2 °C, 9 days) was 7.5 cm. The Weight of root (0.01 mg/l, 2 °C, 9 days) was 3 g, the Area of leaf (0.01 mg/l, 2 °C, 12 days) was 13.4 cm^2 and the Height (0.01 mg/l, 2 °C, 12 days) was 7.5 cm. For the same molecule, the Number of leaf (0.01 mg/l, 2 °C, 12 days) was 3, the Number of tiller (0.01 mg/l, 2 °C, 12 days) was 3 and the Weight of root (0.01 mg/l, 2 °C, 12 days) was 3.2 g. It also gave an Area of leaf (0.01 mg/l, 3 °C, 3 days) of 10.2 cm^2, a Height (0.01 mg/l, 3 °C, 3 days) of 7.1 cm and a Weight of root (0.01 mg/l, 3 °C, 3 days) of 2.5 g. It also gave an Area of leaf (0.01 mg/l, 3 °C, 6 days) of 12 cm^2, a Height (0.01 mg/l, 3 °C, 6 days) of 7.2 cm and a Weight of root (0.01 mg/l, 3 °C, 6 days) of 2.6 g. The Area of leaf (0.01 mg/l, 3 °C, 9 days) was 12.2 cm^2.
